Results taken from PubChem BioAssay AID1259407 (Chemical Carcinogenesis Research Information System (CCRIS), 2018).
The source made the active and inactive calls. No rule for the calls is given here.

System: CCRIS mutagenicity, Ames/micronucleus/aberration tests
Experiment: CCRIS mutagenicity studies
[1] = Test System: AMES SALMONELLA TYPHIMURIUM, Strain/Indicator: TA98, Metabolic Activation: NONE, Method: PREINCUBATION
[2] = Test System: AMES SALMONELLA TYPHIMURIUM, Strain/Indicator: TA100, Metabolic Activation: NONE, Method: PREINCUBATION
[3] = Test System: AMES SALMONELLA TYPHIMURIUM, Strain/Indicator: TA1535, Metabolic Activation: NONE, Method: PREINCUBATION
[4] = Test System: AMES SALMONELLA TYPHIMURIUM, Strain/Indicator: TA1537, Metabolic Activation: NONE, Method: PREINCUBATION
[5] = Test System: AMES SALMONELLA TYPHIMURIUM, Strain/Indicator: TA98, Metabolic Activation: NONE, Method: STANDARD PLATE
[6] = Test System: AMES SALMONELLA TYPHIMURIUM, Strain/Indicator: TA98, Metabolic Activation: RAT, LIVER, S-9, AROCLOR 1254, Method: STANDARD PLATE
[7] = Test System: AMES SALMONELLA TYPHIMURIUM, Strain/Indicator: TA100, Metabolic Activation: NONE, Method: STANDARD PLATE
[8] = Test System: AMES SALMONELLA TYPHIMURIUM, Strain/Indicator: TA100, Metabolic Activation: RAT, LIVER, S-9, AROCLOR 1254, Method: STANDARD PLATE

Compound: CCCCCCCCC1CO1 (centres undefined)
- mutagenic call (Test System: AMES SALMONELLA TYPHIMURIUM, Strain/Indicator: TA97, Metabolic Activation: HAMSTER, LIVER, S-9, AROCLOR 1254 (10% & 30%), Method: PREINCUBATION): inactive; negative
- mutagenic call (Test System: AMES SALMONELLA TYPHIMURIUM, Strain/Indicator: TA97, Metabolic Activation: NONE, Method: PREINCUBATION): inactive; negative
- mutagenic call (Test System: AMES SALMONELLA TYPHIMURIUM, Strain/Indicator: TA97, Metabolic Activation: RAT, LIVER, S-9, AROCLOR 1254 (10% & 30%), Method: PREINCUBATION): inactive; negative
- mutagenic call (Test System: AMES SALMONELLA TYPHIMURIUM, Strain/Indicator: TA98, Metabolic Activation: HAMSTER, LIVER, S-9, AROCLOR 1254 (10% & 30%), Method: PREINCUBATION): inactive; negative
- mutagenic call [1]: inactive; negative
- mutagenic call (Test System: AMES SALMONELLA TYPHIMURIUM, Strain/Indicator: TA98, Metabolic Activation: RAT, LIVER, S-9, AROCLOR 1254 (10% & 30%), Method: PREINCUBATION): inactive; negative
- mutagenic call (Test System: AMES SALMONELLA TYPHIMURIUM, Strain/Indicator: TA100, Metabolic Activation: HAMSTER, LIVER, S-9, AROCLOR 1254 (10% & 30%), Method: PREINCUBATION): inactive; negative
- mutagenic call [2]: inactive; negative
- mutagenic call (Test System: AMES SALMONELLA TYPHIMURIUM, Strain/Indicator: TA100, Metabolic Activation: RAT, LIVER, S-9, AROCLOR 1254 (10% & 30%), Method: PREINCUBATION): inactive; negative
- mutagenic call (Test System: AMES SALMONELLA TYPHIMURIUM, Strain/Indicator: TA1535, Metabolic Activation: HAMSTER, LIVER, S-9, AROCLOR 1254 (10% & 30%), Method: PREINCUBATION): inactive; negative
- mutagenic call [3]: inactive; negative
- mutagenic call (Test System: AMES SALMONELLA TYPHIMURIUM, Strain/Indicator: TA1535, Metabolic Activation: RAT, LIVER, S-9, AROCLOR 1254 (10% & 30%), Method: PREINCUBATION): inactive; negative
- mutagenic call (Test System: AMES SALMONELLA TYPHIMURIUM, Strain/Indicator: TA1537, Metabolic Activation: HAMSTER, LIVER, S-9, AROCLOR 1254 (10% & 30%), Method: PREINCUBATION): inactive; negative
- mutagenic call [4]: inactive; negative
- mutagenic call (Test System: AMES SALMONELLA TYPHIMURIUM, Strain/Indicator: TA1537, Metabolic Activation: RAT, LIVER, S-9, AROCLOR 1254 (10% & 30%), Method: PREINCUBATION): inactive; negative
- mutagenic call (Test System: UDS RAT HEPATOCYTES, Strain/Indicator: THY INCORP, Metabolic Activation: NONE): inactive; negative

Compound: CCCCN
- mutagenic call (Test System: AMES SALMONELLA TYPHIMURIUM, Strain/Indicator: TA98, Metabolic Activation: HAMSTER, LIVER, S-9, AROCLOR 1254 (10%), Method: PREINCUBATION): inactive; negative
- mutagenic call [1]: inactive; negative
- mutagenic call (Test System: AMES SALMONELLA TYPHIMURIUM, Strain/Indicator: TA98, Metabolic Activation: RAT, LIVER, S-9, AROCLOR 1254 (10%), Method: PREINCUBATION): inactive; negative
- mutagenic call (Test System: AMES SALMONELLA TYPHIMURIUM, Strain/Indicator: TA100, Metabolic Activation: HAMSTER, LIVER, S-9, AROCLOR 1254 (10%), Method: PREINCUBATION): inactive; negative
- mutagenic call [2]: inactive; negative
- mutagenic call (Test System: AMES SALMONELLA TYPHIMURIUM, Strain/Indicator: TA100, Metabolic Activation: RAT, LIVER, S-9, AROCLOR 1254 (10%), Method: PREINCUBATION): inactive; negative
- mutagenic call (Test System: AMES SALMONELLA TYPHIMURIUM, Strain/Indicator: TA1535, Metabolic Activation: HAMSTER, LIVER, S-9, AROCLOR 1254 (10%), Method: PREINCUBATION): inactive; negative
- mutagenic call [3]: inactive; negative
- mutagenic call (Test System: AMES SALMONELLA TYPHIMURIUM, Strain/Indicator: TA1535, Metabolic Activation: RAT, LIVER, S-9, AROCLOR 1254 (10%), Method: PREINCUBATION): inactive; negative
- mutagenic call (Test System: AMES SALMONELLA TYPHIMURIUM, Strain/Indicator: TA1537, Metabolic Activation: HAMSTER, LIVER, S-9, AROCLOR 1254 (10%), Method: PREINCUBATION): inactive; negative
- mutagenic call [4]: inactive; negative
- mutagenic call (Test System: AMES SALMONELLA TYPHIMURIUM, Strain/Indicator: TA1537, Metabolic Activation: RAT, LIVER, S-9, AROCLOR 1254 (10%), Method: PREINCUBATION): inactive; negative

Compound: OCC1=CCN2CC[C@@H](O)[C@@H]12
- mutagenic call (Test System: AMES SALMONELLA TYPHIMURIUM, Strain/Indicator: TA100, Metabolic Activation: HAMSTER, LIVER, S-9, PCB, Method: PREINCUBATION): inactive; negative
- mutagenic call (Test System: AMES SALMONELLA TYPHIMURIUM, Strain/Indicator: TA100, Metabolic Activation: RAT, LIVER, S-9, PCB, Method: PREINCUBATION): inactive; negative
- mutagenic call (Test System: UDS HAMSTER HEPATOCYTES, Strain/Indicator: THY INCORP, Metabolic Activation: NONE, Method: AUTORADIOGRAPHY): inactive; negative
- mutagenic call (Test System: UDS MOUSE HEPATOCYTES, Strain/Indicator: THY INCORP, Metabolic Activation: NONE, Method: AUTORADIOGRAPHY): inactive; negative
- mutagenic call (Test System: UDS RAT HEPATOCYTES, Strain/Indicator: THY INCORP, Metabolic Activation: NONE, Method: AUTORADIOGRAPHY): inactive; negative

Compound: CCOc1cc(N=Nc2ccc(N(CCO)CCO)cc2)ccc1N=Nc1c(S(=O)(=O)O)cc2ccc(N)cc2c1O
- mutagenic call [5]: inactive; negative
- mutagenic call [6]: active; positive
- mutagenic call [7]: inactive; negative
- mutagenic call [8]: inactive; negative
- mutagenic call (Test System: AMES SALMONELLA TYPHIMURIUM, Strain/Indicator: TA1538, Metabolic Activation: RAT, LIVER, S-9, AROCLOR 1254, Method: STANDARD PLATE): active; positive

Compound: Fc1cccc(F)n1
- mutagenic call (Test System: AMES SALMONELLA TYPHIMURIUM, Strain/Indicator: TA97, Metabolic Activation: NONE, Method: STANDARD PLATE): inactive; negative
- mutagenic call (Test System: AMES SALMONELLA TYPHIMURIUM, Strain/Indicator: TA97, Metabolic Activation: RAT, LIVER, S-9, AROCLOR 1254, Method: STANDARD PLATE): inactive; negative
- mutagenic call [5]: inactive; negative
- mutagenic call [6]: inactive; negative
- mutagenic call [7]: inactive; negative
- mutagenic call [8]: inactive; negative
- mutagenic call (Test System: AMES SALMONELLA TYPHIMURIUM, Strain/Indicator: TA102, Metabolic Activation: NONE, Method: STANDARD PLATE): inactive; negative
- mutagenic call (Test System: AMES SALMONELLA TYPHIMURIUM, Strain/Indicator: TA102, Metabolic Activation: RAT, LIVER, S-9, AROCLOR 1254, Method: STANDARD PLATE): inactive; negative

Compound: O=c1c(Cl)c(Cl)cnn1S(=O)(=O)c1ccc(Cl)cc1
- mutagenic call [5]: inactive; negative
- mutagenic call [6]: inactive; negative
- mutagenic call [7]: inactive; negative
- mutagenic call [8]: inactive; negative
- mutagenic call (Test System: AMES SALMONELLA TYPHIMURIUM, Strain/Indicator: TA1535, Metabolic Activation: NONE, Method: STANDARD PLATE): inactive; negative
- mutagenic call (Test System: AMES SALMONELLA TYPHIMURIUM, Strain/Indicator: TA1535, Metabolic Activation: RAT, LIVER, S-9, AROCLOR 1254, Method: STANDARD PLATE): inactive; negative
- mutagenic call (Test System: AMES SALMONELLA TYPHIMURIUM, Strain/Indicator: TA1537, Metabolic Activation: NONE, Method: STANDARD PLATE): inactive; negative
- mutagenic call (Test System: AMES SALMONELLA TYPHIMURIUM, Strain/Indicator: TA1537, Metabolic Activation: RAT, LIVER, S-9, AROCLOR 1254, Method: STANDARD PLATE): inactive; negative
